{
  "source": "patent US20160320408A1",
  "about": "“METHODS OF T CELL EPITOPE PROFILING, MAKING T CELL COMPOSITIONS, AND TREATING DISEASES” (priority 2013, published 2016)",
  "format_in_all_cases": "cell-based, human",
  "key": {"[1]": {"tested_on": "PBMC from a healthy donor"}, "donor cells (PBMC)": {"tested_on": "donor cells (PBMC)"}, "[2]": {"tested_on": "PBMC from a healthy donor", "remark": "listed apart in the source"}},
  "data": [
    {"sequence": "DIKNDLYEKTLNDYKAIANK [TT1]", "values": [
      {"measurement": "IFNγ over a positivity threshold set at 2.5-fold above the negative control (no peptide) cultures", "setting": "[1]", "value": 0, "unit": "pg/mL"}
    ]},
    {"sequence": "IDKISDVSTIVPYIGPALNI [TT4]", "values": [
      {"measurement": "generation of peptide-reactive T-cell line (in words)", "setting": "donor cells (PBMC)", "value": "successfully generated"},
      {"measurement": "IFNγ response (in words)", "setting": "[1]", "value": "only one operator (HK) detecting a robust response"}
    ]},
    {"sequence": "IVVYNLQSKITLPNDRTTPV [TT2]", "values": [
      {"measurement": "IFNγ over a positivity threshold set at 2.5-fold above the negative control (no peptide) cultures", "setting": "[1]", "value": 0, "unit": "pg/mL"}
    ]},
    {"sequence": "NLVPMVATV [CMVpp65]", "values": [
      {"measurement": "detection of IFNγ secreting T-cells, direct ex vivo ELISpot (in words)", "setting": "[2]", "value": "readily detectable"}
    ]}
  ]
}
